The record followed here is patent US11236083B2, “Compounds and pharmaceutical compositions for modulating SGK activity, and methods thereof” (NEW ERA PHARMA, INC., priority 2016, dated 2022).

Each structure is given as a SMILES string. pIC50: −log10 of the molar value.

One assay has as its target T1, Sgk2 (Homo sapiens, UniProt Q9HBY8).
T1 sequence (Q9HBY8 1-367): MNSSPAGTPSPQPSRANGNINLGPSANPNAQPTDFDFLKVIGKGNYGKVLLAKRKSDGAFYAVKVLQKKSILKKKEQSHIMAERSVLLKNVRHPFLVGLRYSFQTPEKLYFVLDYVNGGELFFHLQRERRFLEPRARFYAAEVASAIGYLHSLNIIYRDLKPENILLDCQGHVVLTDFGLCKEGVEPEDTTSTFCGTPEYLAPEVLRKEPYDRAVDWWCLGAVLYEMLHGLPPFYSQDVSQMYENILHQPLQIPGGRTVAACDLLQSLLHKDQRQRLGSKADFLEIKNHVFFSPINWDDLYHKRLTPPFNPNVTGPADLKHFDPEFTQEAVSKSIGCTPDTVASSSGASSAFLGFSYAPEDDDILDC
Description: Enzyme based assay for SGK2 (biotinylated Akt Substrates-2 peptide, Eu3+ Cryptate/XL665 detection). In kind it is biochemical. As to conditions: 50 μM ATP; read-out: Sgk2 (50 μM ATP). The procedure:
(§1) 1. Enzyme Based Assays for SGK1, SGK2, SGK3, and Akt1
(§2) The kinase enzymatic reaction is carried out with a biotinylated Akt Substrates-2 peptide substrate. The phosphorylated substrate is then detected using a specific anti-phospho peptide antibody which is coupled with Eu^3+ Cryptate and XL665 conjugated with streptavidin.
(§3) Exemplary Assay Conditions
(§4) • Enzyme: ˜0.1 nM • Substrate: 0.2 μM • ATP: 50 μM and 1 mM • Mg^2+: 10 mM • Reaction time: 60 min with 50 μM ATP and 30 min with 1 mM ATP • SA-XL to Biotin: 1:10
(§5) Detailed Steps • 1. prepare the enzyme and substrate solution with the buffer from Cisbio • 2. add the enzyme and substrate solution to the diluted compound plate • 3. transfer 5 μL of compound, enzyme, and substrate mixture to an 384-well assay plate • 4. add 5 μL ATP (with Mg^2+) solution to initiate the reaction • 5. after certain time, add 10 μL of stop solution containing SA-XL and specific antibody • 6. read the plate after 2 h incubation at rt • 7. process the data using prizm software (Exemplary results are shown in FIG. 1.) 2. PK Studies Protocol
Take `COc1ccc(F)c(S(=O)(=O)Nc2ccc(-c3ccc4cn[nH]c4c3)nc2)c1`: the pIC50 was 7.50.

On to `COc1ccc(F)c(S(=O)(=O)Nc2ccc(-c3cc(OC4COC4)c4c(N)n[nH]c4c3)cc2)c1`, for which the pIC50 is 8.36.

As to `COc1ccc(F)c(S(=O)(=O)Nc2ccc(-c3cc(C)c4c(N)n[nH]c4c3)nc2)c1`, the pIC50 is 8.30.

As for `COCCOc1cc(-c2ccc(NS(=O)(=O)c3cc(OC)ccc3F)cn2)cc2[nH]nc(N)c12`, the pIC50 is 8.35.

For `COc1ccc(F)c(S(=O)(=O)Nc2ccc(-c3cc4[nH]ncc4cn3)cc2)c1`, the pIC50 was 8.01.

With `COc1ccc(F)c(S(=O)(=O)Nc2ccc(-c3cc4c5c(n[nH]c5c3)NC(=O)CO4)cc2)c1`, the pIC50 is 7.61.

In the case of `CNCCOc1cc(-c2ccc(NS(=O)(=O)c3cc(OC)ccc3F)cc2)cc2[nH]nc(N)c12`, the pIC50 was 8.22.

For the compound `COc1ccc(F)c(S(=O)(=O)Nc2ccc(-c3cc(OC(C)C)c4c(N)n[nH]c4c3)cc2)c1`, the pIC50 is 7.19.

As for `COc1ccc(F)c(S(=O)(=O)Nc2ccc(-c3cc(OC4CCOC4)c4c(N)n[nH]c4n3)cc2)c1` (centres unmarked), the pIC50 was 8.12.

Consider `COc1ccc(F)c(S(=O)(=O)Nc2ccc(-c3cc4[nH]ncc4c(NCC4CNCCO4)n3)cc2)c1` (centres unmarked), for which the pIC50 was 8.28.

On to `COc1ccc(F)c(S(=O)(=O)Nc2ccc(-c3cc(O[C@H]4CCOC4)c4c(N)n[nH]c4c3)cc2)c1`, for which the pIC50 is 7.99.

As to `COc1ccc(F)c(S(=O)(=O)Nc2ccc(-c3cc4[nH]ncc4c(OC)n3)cc2)c1`, the pIC50 was 7.41.

For `COc1ccc(Cl)c(NS(=O)(=O)c2ccc(-c3ccc4c(N)n[nH]c4n3)cc2)c1`, the pIC50 was 6.96.

In the case of `COc1ccc(F)c(S(=O)(=O)Nc2ccc(-c3cnc4c(N)n[nH]c4c3)nc2)c1`, the pIC50 was 7.56.

On to `Nc1n[nH]c2cc(-c3ccc(NS(=O)(=O)c4cccc(Cl)c4Cl)cn3)ccc12`, for which the pIC50 is 7.77.

As for `COc1ccc(F)c(S(=O)(=O)Nc2cnc(-c3ccc4c(N)n[nH]c4c3)nc2)c1`, the pIC50 is 8.43.

As to `COc1ccc(F)c(S(=O)(=O)Nc2ccc(-c3ccc4c(N)n[nH]c4c3)nc2)c1` [drawing 151], the pIC50 is 8.34.

The same assay, now with this note: 1 mM ATP; read-out: Sgk2 (1 mM ATP).
For the compound `COc1ccc(F)c(S(=O)(=O)Nc2ccc(-c3ccc4cn[nH]c4c3)nc2)c1`, the pIC50 was 6.57.

Regarding `COc1ccc(F)c(S(=O)(=O)Nc2ccc(-c3cc(OC4COC4)c4c(N)n[nH]c4c3)cc2)c1`, the pIC50 is 8.19.

In the case of `COc1ccc(F)c(S(=O)(=O)Nc2ccc(-c3cc(C)c4c(N)n[nH]c4c3)nc2)c1`, the pIC50 is 8.10.

As to `COCCOc1cc(-c2ccc(NS(=O)(=O)c3cc(OC)ccc3F)cn2)cc2[nH]nc(N)c12`, the pIC50 is 7.48.

In the case of `COc1ccc(F)c(S(=O)(=O)Nc2ccc(-c3cc4[nH]ncc4cn3)cc2)c1`, the pIC50 is below 6.70.

For `COc1ccc(F)c(S(=O)(=O)Nc2ccc(-c3cc4c5c(n[nH]c5c3)NC(=O)CO4)cc2)c1`, the pIC50 is 6.65.

As to `CNCCOc1cc(-c2ccc(NS(=O)(=O)c3cc(OC)ccc3F)cc2)cc2[nH]nc(N)c12`, the pIC50 was 7.41.

As to `COc1ccc(F)c(S(=O)(=O)Nc2ccc(-c3cc(OC(C)C)c4c(N)n[nH]c4c3)cc2)c1`, the pIC50 was 6.72.

Turning to `COc1ccc(F)c(S(=O)(=O)Nc2ccc(-c3cc(OC4CCOC4)c4c(N)n[nH]c4n3)cc2)c1` (centres unmarked), the pIC50 was 8.12.

On to `COc1ccc(F)c(S(=O)(=O)Nc2ccc(-c3cc4[nH]ncc4c(NCC4CNCCO4)n3)cc2)c1` (centres unmarked), for which the pIC50 is 8.46.

For the compound `COc1ccc(F)c(S(=O)(=O)Nc2ccc(-c3cc(O[C@H]4CCOC4)c4c(N)n[nH]c4c3)cc2)c1`, the pIC50 was 7.79.

Take `COc1ccc(F)c(S(=O)(=O)Nc2ccc(-c3cc4[nH]ncc4c(OC)n3)cc2)c1`: the pIC50 is 7.49.

Regarding `COc1ccc(F)c(S(=O)(=O)Nc2ccc(-c3cnc4c(N)n[nH]c4c3)nc2)c1`, the pIC50 was 6.87.

With `Nc1n[nH]c2cc(-c3ccc(NS(=O)(=O)c4cccc(Cl)c4Cl)cn3)ccc12`, the pIC50 was 7.87.

Regarding `COc1ccc(F)c(S(=O)(=O)Nc2cnc(-c3ccc4c(N)n[nH]c4c3)nc2)c1`, the pIC50 is 8.12.

On to `COc1ccc(F)c(S(=O)(=O)Nc2ccc(-c3ccc4c(N)n[nH]c4c3)nc2)c1` [drawing 151], for which the pIC50 was 7.68.

In the next assay the target is T2, Sgk1 (Homo sapiens, UniProt O00141).
T2 sequence (O00141 1-431): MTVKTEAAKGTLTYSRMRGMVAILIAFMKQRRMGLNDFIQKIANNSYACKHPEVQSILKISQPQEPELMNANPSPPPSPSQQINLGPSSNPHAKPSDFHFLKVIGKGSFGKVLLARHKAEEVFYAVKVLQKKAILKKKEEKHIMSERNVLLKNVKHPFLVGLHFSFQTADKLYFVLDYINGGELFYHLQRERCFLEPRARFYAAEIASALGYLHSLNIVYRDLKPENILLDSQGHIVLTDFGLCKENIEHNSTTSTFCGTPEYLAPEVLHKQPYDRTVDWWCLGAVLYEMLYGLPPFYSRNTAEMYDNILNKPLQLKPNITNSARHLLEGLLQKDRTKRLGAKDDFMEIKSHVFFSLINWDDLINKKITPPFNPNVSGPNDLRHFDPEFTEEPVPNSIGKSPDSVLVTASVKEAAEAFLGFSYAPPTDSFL
Description: Enzyme based assay for SGK1 (biotinylated Akt Substrates-2 peptide, Eu3+ Cryptate/XL665 detection). The class given is biochemical. As to conditions: 50 μM ATP; read-out: Sgk1 (50 μM ATP). The procedure:
as §1, §2, §3, §4, §5
As to `COc1ccc(F)c(S(=O)(=O)Nc2ccc(-c3ccc4cn[nH]c4c3)nc2)c1`, the pIC50 was 7.03.

In the case of `COc1ccc(F)c(S(=O)(=O)Nc2ccc(-c3cc(OC4COC4)c4c(N)n[nH]c4c3)cc2)c1`, the pIC50 is 8.07.

As to `COc1ccc(F)c(S(=O)(=O)Nc2ccc(-c3cc(C)c4c(N)n[nH]c4c3)nc2)c1`, the pIC50 was 8.00.

Consider `COCCOc1cc(-c2ccc(NS(=O)(=O)c3cc(OC)ccc3F)cn2)cc2[nH]nc(N)c12`, for which the pIC50 is 7.40.

As for `COc1ccc(F)c(S(=O)(=O)Nc2ccc(-c3cc4[nH]ncc4cn3)cc2)c1`, the pIC50 was 6.80.

For the compound `COc1ccc(F)c(S(=O)(=O)Nc2ccc(-c3cc4c5c(n[nH]c5c3)NC(=O)CO4)cc2)c1`, the pIC50 was 7.51.

For the compound `CNCCOc1cc(-c2ccc(NS(=O)(=O)c3cc(OC)ccc3F)cc2)cc2[nH]nc(N)c12`, the pIC50 was 7.75.

For `COc1ccc(F)c(S(=O)(=O)Nc2ccc(-c3cc(OC(C)C)c4c(N)n[nH]c4c3)cc2)c1`, the pIC50 was 7.37.

As for `COc1ccc(F)c(S(=O)(=O)Nc2ccc(-c3cc(OC4CCOC4)c4c(N)n[nH]c4n3)cc2)c1` (centres unmarked), the pIC50 was 7.61.

In the case of `COc1ccc(F)c(S(=O)(=O)Nc2ccc(-c3cc4[nH]ncc4c(NCC4CNCCO4)n3)cc2)c1` (centres unmarked), the pIC50 was 8.09.

As for `COc1ccc(F)c(S(=O)(=O)Nc2ccc(-c3cc(O[C@H]4CCOC4)c4c(N)n[nH]c4c3)cc2)c1`, the pIC50 was 8.28.

With `COc1ccc(F)c(S(=O)(=O)Nc2ccc(-c3cc4[nH]ncc4c(OC)n3)cc2)c1`, the pIC50 is 7.15.

For `COc1ccc(Cl)c(NS(=O)(=O)c2ccc(-c3ccc4c(N)n[nH]c4n3)cc2)c1`, the pIC50 is below 5.70.

Regarding `COc1ccc(F)c(S(=O)(=O)Nc2ccc(-c3cnc4c(N)n[nH]c4c3)nc2)c1`, the pIC50 is 6.85.

Consider `Nc1n[nH]c2cc(-c3ccc(NS(=O)(=O)c4cccc(Cl)c4Cl)cn3)ccc12`, for which the pIC50 was 6.82.

In the case of `COc1ccc(F)c(S(=O)(=O)Nc2cnc(-c3ccc4c(N)n[nH]c4c3)nc2)c1`, the pIC50 is 7.85.

For `COc1ccc(F)c(S(=O)(=O)Nc2ccc(-c3ccc4c(N)n[nH]c4c3)nc2)c1` [drawing 151], the pIC50 is 7.60.

The assay is the same for the next values; noted with them: 1 mM ATP; read-out: Sgk1 (1 mM ATP).
`COc1ccc(F)c(S(=O)(=O)Nc2ccc(-c3ccc4cn[nH]c4c3)nc2)c1`: the pIC50 was 6.84.

In the case of `COc1ccc(F)c(S(=O)(=O)Nc2ccc(-c3cc(OC4COC4)c4c(N)n[nH]c4c3)cc2)c1`, the pIC50 is 8.42.

Consider `COc1ccc(F)c(S(=O)(=O)Nc2ccc(-c3cc(C)c4c(N)n[nH]c4c3)nc2)c1`, for which the pIC50 is 8.04.

As to `COCCOc1cc(-c2ccc(NS(=O)(=O)c3cc(OC)ccc3F)cn2)cc2[nH]nc(N)c12`, the pIC50 is 7.82.

Regarding `COc1ccc(F)c(S(=O)(=O)Nc2ccc(-c3cc4[nH]ncc4cn3)cc2)c1`, the pIC50 is below 6.70.

For `COc1ccc(F)c(S(=O)(=O)Nc2ccc(-c3cc4c5c(n[nH]c5c3)NC(=O)CO4)cc2)c1`, the pIC50 is 6.01.

For `CNCCOc1cc(-c2ccc(NS(=O)(=O)c3cc(OC)ccc3F)cc2)cc2[nH]nc(N)c12`, the pIC50 is 7.95.

For the compound `COc1ccc(F)c(S(=O)(=O)Nc2ccc(-c3cc(OC(C)C)c4c(N)n[nH]c4c3)cc2)c1`, the pIC50 is 7.23.

On to `COc1ccc(F)c(S(=O)(=O)Nc2ccc(-c3cc(OC4CCOC4)c4c(N)n[nH]c4n3)cc2)c1` (centres unmarked), for which the pIC50 is 8.05.

Take `COc1ccc(F)c(S(=O)(=O)Nc2ccc(-c3cc4[nH]ncc4c(NCC4CNCCO4)n3)cc2)c1` (centres unmarked): the pIC50 is 8.38.

For `COc1ccc(F)c(S(=O)(=O)Nc2ccc(-c3cc(O[C@H]4CCOC4)c4c(N)n[nH]c4c3)cc2)c1`, the pIC50 is 8.54.

Consider `COc1ccc(F)c(S(=O)(=O)Nc2ccc(-c3cnc4c(N)n[nH]c4c3)nc2)c1`, for which the pIC50 is 6.68.

Turning to `Nc1n[nH]c2cc(-c3ccc(NS(=O)(=O)c4cccc(Cl)c4Cl)cn3)ccc12`, the pIC50 was 6.27.

For the compound `COc1ccc(F)c(S(=O)(=O)Nc2cnc(-c3ccc4c(N)n[nH]c4c3)nc2)c1`, the pIC50 was 7.21.

With `COc1ccc(F)c(S(=O)(=O)Nc2ccc(-c3ccc4c(N)n[nH]c4c3)nc2)c1` [drawing 151], the pIC50 was 6.80.
